# Patent US20200164005A1, “PHARMACEUTICAL COMPOSITIONS OF A BILE ACID DERIVATIVE AND MICROBIOME AND USES THEREOF” (Intercept Pharmaceuticals, Inc., priority 2017, published 2020)
# Columns and labels:
# gut microbiome species = assay: Shotgun metagenomics of stool: relative abundance of gut microbiome species after OCA treatment; format: in vivo, human; conditions: for OCA Response: abundance change of the bacterial species, subjects treated with 10 mg of OCA
# Procedure: Twenty-four eligible subjects were enrolled and randomized to 1 of 3 treatment groups (5 mg, 10 mg, or 25 mg) in a treatment ratio of 1:1:1. The study comprised single dose and multiple dose phases. The randomized dose administered in the single dose phase was the subject's dose level for the multiple dose phase. A single dose of OCA (5 mg, 10 mg, or 25 mg) was administered on Day 1. On Day 4, the multiple dose phase began at the same dose level (5 mg, 10 mg, or 25 mg), with subjects receiving OCA once daily for 14 days. The last dose was given to subjects on Day 17. Subjects remained at the inpatient trial site from Day 0 until the morning of Day 30, and returned to the study site for collection of a sample on Days 35, 37, 39, and 44.
# Stool specimens for microbiota genome testing were collected up to 2 days prior to submitting them on Day 0, on Day 15, 16, or 17 prior to submitting them on the same day, and up to 2 days prior to submitting them on Day 37. One Day 1, pre-dose blood samples were collected, and serial blood samples were obtained from Day 1 to Day 3 following administration on Day 1 (see Table 1). Multiple dose phase started on Day 4 and lasted through Day 17, during which subjects received once daily doses of OCA (5 mg, 10 mg, or 25 mg) and pre-dose blood samples were drawn (see Table 1).
# For microbiome analysis, stool samples were collected on day 0, day 15 or 16, and day 37. FGF19 and C4
# The bacterial abundance on species level was generated from MetaPhlAn2 (Segata et al., Nat. Methods 9, 811 (2012)). 341 species were identified from the dataset.
# (§1) The adaptors, human reads contamination, and low quality sequences were removed from the raw sequencing data using software kneaddata. Trimmomatic (Bolger et al., Bioinformatics 30, 2114 (2014)) was invoked by kneaddata for removing adaptor sequence, trimming low quality bases, and removing low quality reads. Bowtie (Langmead and Salzberg, Nat. Methods 9, 357 (2012)) was invoked by kneaddata for human reads detection. • Removing sequencing noise: For each sample, if the abundance of one species was smaller than 0.05% of the maximum abundance of all species in the sample, it was considered as noise, and the abundance of this species in the sample was set as 0. • Imputing missing value (i.e. Os): Because log 2 transformation was needed in further analysis, adjustment factor (e) was added to the abundance matrix, where e equals 50% of the minimum non-zero abundance value of all samples. • Removing low abundance species: A species was removed if the relative abundance was lower than 0.1% in >=95% of samples. 128 species was kept for further analysis.
# • Species differential abundance analysis: The time effect of OCA treatment was studied on three OCA dose groups separately using Friedman rank test. The dose effect of OCA treatment was studied on three time point separately, and Kruskal-Wallis test was used. • Gene differential abundance analysis: For each of the most varying genes, repeated-measure ANOVA was performed to study the time effect and OCA dose effect on gene abundance change.
# An open label, randomized, single dose and multiple dose trial to assess the pharmacokinetics of obeticholic acid (OCA) in 24 healthy male or female subjects aged 18 to 55 years receiving 5, 10 or 25 mg OCA was conducted. Stool specimens for microbiota genome testing were collected by subjects up to 2 days before Day 0 (T0), […] (T1), and Day 37 (T2). […]
# [1] = system: gut microbiome gene families; assay: Gene differential abundance analysis of stool metagenome (HUMAnN2, Uniref50/Uniref90, transposases); format: in vivo, human
# Text: as §1
# HUMAnN2 (Abubucker et al., PLoS Comput. Biol. 8, e1002358 (2012)) was used to calculate gene and pathway abundance from metagenomic sequencing data. Uniref50 (UniProt® Consortium, Nucleic Acids Res. 43, D204 (2015)) was used for gene family definition. MetaCyc (Caspi et al., Nucleic Acids Res. 42, D459 (2014)) and KEGG (Kanehisa and Goto, Nucleic Acids Res. 28, 27 (2000); Kanehisa et al., Nucleic Acids Res. 44, D457 (2016)) were used for pathway analysis. • Gene family identification: Initially, 989251 gene families were identified from the dataset by HUMAnN2. Quantile normalization was implemented. For each sample, the RPK values were added up till 90% percentile of all genes (normalization factor, nf). RPK value of each gene in each sample was then divided by the nf of the sample, and multiplied with the mean of nf of all samples. 683270 uncharacterized genes were removed. Genes undetected in over 90% of samples (101994) were removed. 203987 genes were kept. Due to the large number of genes identified, 25% of the most varying genes were selected for further analysis. The most varying genes were defined by the coefficient variation (cv=sd/mean) of log 2 transformed value. • MetaCyc pathway identification: HUMAnN2 identified 567 MetaCyc pathways from the dataset. Quantile normalization was then performed. For each sample, the abundance values were added up till 90% percentile of all pathways (normalization factor, nf). Each pathway abundance in each sample was divided by the nf of the sample, and then multiplied with the mean of nf for all samples. The low abundance pathways (52), which were not detected on over 90% of all samples, were removed. 515 high quality MetaCyc pathways were kept for further analysis. • KEGG pathway identification: HUMAnN2 identified 160 KEGG pathways from the dataset. Quantile normalization was applied, and low abundance pathways were removed. 66 high quality KEGG pathways were kept for further analysis.
# • Species differential abundance analysis: The time effect of OCA treatment was studied on three OCA dose groups separately using Friedman rank test. The dose effect of OCA treatment was studied on three time point separately, and Kruskal-Wallis test was used. • Gene differential abundance analysis: For each of the most varying genes, repeated-measure ANOVA was performed to study the time effect and OCA dose effect on gene abundance change. […]
# [2] = 10 mg/day dose; cited from earlier work
smiles,measurement,setting,value
"CC[C@H]1[C@@H](O)[C@@H]2[C@H](CC[C@]3(C)[C@@H]([C@H](C)CCC(=O)O)CC[C@@H]23)[C@@]2(C)CC[C@@H](O)C[C@@H]12 [OCA, 3α,7α-dihydroxy-6α-ethyl-5β-cholan-24-oic acid]",time-dependent effect of OCA on Streptococcus thermophilus abundance in fecal microbiota,gut microbiome species; 10 mg OCA group,greatest increase
same,abundances of all Gram-negative bacteria following OCA treatment,"gut microbiome species; 10 mg OCA, Table 15",decreased
same,numbers of Lactobacillus casei paracasei and Streptococcus thermophilus upon discontinuation of OCA,"gut microbiome species; OCA 5 mg, 10 mg, 25 mg",decreased
same,abundance of Lactobacillus casei paracasei and Streptococcus thermophilus in stool over time,"gut microbiome species; OCA 5 mg, 10 mg, 25 mg, Friedman rank test, p<0.05",differentially abundant over time in all three OCA dosage groups
same,OCA Response,gut microbiome species; Alistipes_putredinis,Decrease
same,OCA Response,gut microbiome species; Lactococcus_lactis,Increase
same,OCA Response,gut microbiome species; Subdoligranulum_unclassified,Equivocal
same,low abundance gram positive organisms with the use of OCA,gut microbiome species; day 16,consistent increase
same,OCA dose effect on abundance of Bacteroides uniformis and Streptococcus thermophilus,"gut microbiome species; day 16 and day 37, Kruskal-Wallis test, p<0.05",significantly different among dose groups
same,low abundance gram positive organisms after OCA was discontinued,gut microbiome species; day 37,decreased to baseline
same,abundances of Gram-positive bacterial genera following OCA treatment,"gut microbiome species; with two exceptions, 10 mg OCA, Table 15",increased abundances
same,number of genes with significant time-dependent effects in response to OCA treatment,"[1]; Uniref90 high stringency genomic analysis, eight bacterial species",782
same,representation of bacterial transposase genes,[1]; all three OCA doses,robust increase
same,glycosyl transferase genes in the presence of OCA,[1]; in vivo,significantly increased
same,OCA dose effect on gene abundance,"[1]; repeated measure ANOVA, FDR<0.05",No OCA dose effect or OCA dose×day interaction was observed
same,number of genes differentially abundant over time,"[1]; repeated measure ANOVA, FDR<0.05 for time effect",112
same,OCA concentration calculated to be reached in the human small intestine,[2],~40 µM
